Experimental findings from ChEMBL document CHEMBL1201862, “PubChem BioAssay data set” (2004) are described below.

Common to all, as to assay: NCI-60 cell line screen, 48 h
For test [1], the system named is CAKI-1.
Test [2] concerns DU-145.
Test [3] relates to EKVX.
Test [4] relates to HCT-15.
For test [5], the system named is HT-29.
In test [6] the test system is Hs-578T.
For test [7], the system named is Malme-3M.
Test [8] has as its system NCI-H226.
In test [9] the test system is NCI-H23.
Test [10] concerns NCI-H460.
For test [11], the system named is OVCAR-4.
For test [12], the system named is OVCAR-5.
Test [13] concerns OVCAR-8.
Test [14] has as its system SF-295.
The test system of test [15] is SK-MEL-28.
The test system of test [16] is SNB-19.
Test [17] relates to SR.
For test [18], the system named is UACC-62.

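96-well plates; 48 h exposure; 5 concentrations. Endpoints by linear interpolation between flanking doses. Not reached: highest tested concentration assigned. The concentration for 50% growth inhibition is given as GI50.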 Activity calls are given as the source filed them. Cut-off read from the data, not from the text of the source: active = GI50 up to about 1.1 µM and inactive = higher.

For `CN(C)CCn1c(=O)c2ccc(NCCCN(C)CCCNc3ccc4c(=O)n(CCN(C)C)c(=O)n5c6ccc(O)cc6c(=O)c3c45)c3c(=O)c4cc(O)ccc4n(c1=O)c23`, the GI50 in [1] was < 0.01 µM (active); in test [2], < 0.01 µM (active); in test [3], 0.0933 µM (active); in test [4] it was less than 0.0173 µM; in [5] it was < 0.01 µM (active); in test [6], 0.0234 µM (active). Besides, the GI50 was 0.0659 µM (active) in [7]; < 0.01 µM (active) in test [8]; < 0.01 µM (active) in test [9]; < 0.01 µM (active) in [10]; < 0.01 µM (active) in test [11]; 0.0442 µM (active) in [12]. Moreover, the GI50 in test [13] is < 0.01 µM (active); in test [14], < 0.01 µM (active); in [15] it was 0.0841 µM (active); in test [16], < 0.01 µM (active); in [17] it was < 0.01 µM (active); in [18] it was < 0.0116 µM (active).
As for `CC(C)OC(=O)c1ccc(CCc2cc(O)c(Br)cc2O)cc1`, the GI50 in [1] was 11.4 µM (inactive); in [2], 14.4 µM (inactive); in test [3], 15.3 µM (inactive); in test [4] it was 6.18 µM; in test [5] it was 18.7 µM (inactive); in test [6], 14.6 µM (inactive). The GI50 was 17.2 µM (inactive) in test [7]; 18.7 µM (inactive) in [8]; 8.85 µM (inactive) in test [9]; 18.6 µM (inactive) in test [10]; 2.31 µM (inactive) in test [11]; 17.5 µM (inactive) in test [12]. Further, the GI50 in test [13] was 13.9 µM (inactive); in test [14] it was 17.3 µM (inactive); in [15], 13.9 µM (inactive); in test [16], 14.8 µM (inactive); in [17] it was 23.7 µM (inactive); in [18] it was 20.2 µM (inactive).
With `O=C1C(C(O)(C(F)(F)Cl)C(F)(F)Cl)CCC1C(O)(C(F)(F)Cl)C(F)(F)Cl` (centres undefined), the GI50 is 3.4 µM (inactive) in test [1]; 3.81 µM (inactive) in [2]; 4.1 µM (inactive) in [3]; 3.91 µM in test [4]; 3.26 µM (inactive) in test [5]; 1.9 µM (inactive) in [6]. In addition, the GI50 is 5.47 µM (inactive) in [7]; 3.6 µM (inactive) in test [8]; 2.8 µM (inactive) in test [9]; > 10 µM (inactive) in test [10]; 3.4 µM (inactive) in test [11]; 5.43 µM (inactive) in test [12]. Moreover, the GI50 was 3.94 µM (inactive) in test [13]; 2.58 µM (inactive) in test [14]; 3.42 µM (inactive) in test [15]; 4.3 µM (inactive) in test [16]; > 10 µM (inactive) in test [17]; 3.25 µM (inactive) in test [18].
With `O=C(Nc1ccc2ncccc2c1)c1cc2c(cc1Cl)Sc1nccn1S2(=O)=O`, the GI50 in [1] is 22 µM (inactive); in [2] it was 14.3 µM (inactive); in test [3] it was 19.1 µM (inactive); in [4], 11 µM; in test [5], 16.7 µM (inactive); in [6], 31.2 µM (inactive). Further, the GI50 in [7] is 16.7 µM (inactive); in [8], 18.1 µM (inactive); in [9], 15.6 µM (inactive); in test [10] it was 15.7 µM (inactive); in [11] it was 26.2 µM (inactive); in [12], 20.9 µM (inactive). Besides, the GI50 in test [13] was 16.5 µM (inactive); in test [14] it was 15.9 µM (inactive); in test [15], 18.4 µM (inactive); in test [16], 16.4 µM (inactive); in test [17], 4.36 µM (inactive); in test [18], 16.6 µM (inactive).
On to `Brc1cccc(/C=C/CN2CCN(CCOC(c3ccccc3)c3ccccc3)CC2)c1`, for which the GI50 in test [1] was 15.9 µM (inactive); in test [2] it was 13.6 µM (inactive); in [3], 17.5 µM (inactive); in test [4], 15.6 µM; in test [5], 6.22 µM (inactive); in test [6] it was 22.1 µM (inactive). Further, the GI50 was 16.1 µM (inactive) in test [7]; 19 µM (inactive) in [8]; 16.5 µM (inactive) in test [9]; 13.3 µM (inactive) in [10]; 11.7 µM (inactive) in test [11]; 16.2 µM (inactive) in [12]. Also, the GI50 in test [13] was 16.1 µM (inactive); in [14] it was 17.6 µM (inactive); in [15], 17.8 µM (inactive); in test [16] it was 16.7 µM (inactive); in [17], 9.02 µM (inactive); in test [18] it was 17.4 µM (inactive).
Consider `COC(=O)C1=C(OC(=O)/C(=C/c2ccc(Cl)cc2Cl)c2ccc(Cl)cc2Cl)C(C(=O)OC)[C@@]2(O)[C@@H](C(=O)OC)[C@H](C)C[C@@H]1[C@@H]2C(=O)OC` (some centres undefined), for which the GI50 is > 100 µM (inactive) in test [1]; > 100 µM (inactive) in test [2]; 47.8 µM (inactive) in [3]; more than 100 µM in [4]; > 100 µM (inactive) in [5]; > 100 µM (inactive) in test [6]. For the same compound, the GI50 in test [7], in test [8], in test [9], in [10], in [11] and in [12] was > 100 µM (inactive) in each case. Also, the GI50 was 34.4 µM (inactive) in test [13]; 16.5 µM (inactive) in [14]; > 100 µM (inactive) in test [15]; > 100 µM (inactive) in test [16]; > 100 µM (inactive) in test [17]; 92.5 µM (inactive) in test [18].
`CN(C)/C=N/NC(=O)/C(C#N)=C/N(C)C`: the GI50 in test [1] was > 100 µM (inactive); in test [2], > 100 µM (inactive); in test [3] it was > 100 µM (inactive); in test [4], more than 100 µM; in [5], > 100 µM (inactive); in test [6], > 100 µM (inactive). Further, the GI50 in test [7] is 75.3 µM (inactive); in test [8], > 100 µM (inactive); in test [9], > 100 µM (inactive); in test [10], > 100 µM (inactive); in [11] it was > 100 µM (inactive); in test [12] it was > 100 µM (inactive). Further, the GI50 in test [13], in test [14], in [15], in test [16], in test [17] and in test [18] was > 100 µM (inactive) each time.
`CC#CC#C/C=C1/C=CC2(CCCCO2)O1` (centres undefined): the GI50 in test [1] was > 100 µM (inactive); in [2], > 100 µM (inactive); in [3], > 100 µM (inactive); in [4], 56.8 µM; in [5], > 100 µM (inactive); in test [6], > 100 µM (inactive). The GI50 in [7], in [8], in [9], in test [10], in test [11] and in test [12] was > 100 µM (inactive) each time. The GI50 is > 100 µM (inactive) in test [13]; > 100 µM (inactive) in test [14]; > 100 µM (inactive) in [15]; 40.6 µM (inactive) in [16]; 35.6 µM (inactive) in test [17]; 86.5 µM (inactive) in test [18].
